Experimental data as given in article PMC8348310, “Antioxidants Isolated from Elaeagnus umbellata (Thunb.) Protect against Bacterial Infections and Diabetes in Streptozotocin-Induced Diabetic Rat Model” (Molecules, 2021).

Columns and labels:
[1] = target: T1, Type-VI α-amylase (porcine pancreas) (Sus scrofa, UniProt P00690); assay: In vitro α-amylase inhibition assay (DNSA); type: biochemical; conditions: for inhibition at 31.05 µg/mL / inhibition at 62.5 µg/mL / inhibition at 125 µg/mL / inhibition at 250 µg/mL / inhibition at 500 µg/mL / inhibition at 1000 µg/mL: read-out: % α-Amylase Inhibition Mean ± SEM; for IC50: linear regression of % inhibition vs concentration
T1 construct: purchased Sigma Aldrich (Darmstadt, Germany); host or cells: porcine pancreas
T1 sequence (P00690 16-511): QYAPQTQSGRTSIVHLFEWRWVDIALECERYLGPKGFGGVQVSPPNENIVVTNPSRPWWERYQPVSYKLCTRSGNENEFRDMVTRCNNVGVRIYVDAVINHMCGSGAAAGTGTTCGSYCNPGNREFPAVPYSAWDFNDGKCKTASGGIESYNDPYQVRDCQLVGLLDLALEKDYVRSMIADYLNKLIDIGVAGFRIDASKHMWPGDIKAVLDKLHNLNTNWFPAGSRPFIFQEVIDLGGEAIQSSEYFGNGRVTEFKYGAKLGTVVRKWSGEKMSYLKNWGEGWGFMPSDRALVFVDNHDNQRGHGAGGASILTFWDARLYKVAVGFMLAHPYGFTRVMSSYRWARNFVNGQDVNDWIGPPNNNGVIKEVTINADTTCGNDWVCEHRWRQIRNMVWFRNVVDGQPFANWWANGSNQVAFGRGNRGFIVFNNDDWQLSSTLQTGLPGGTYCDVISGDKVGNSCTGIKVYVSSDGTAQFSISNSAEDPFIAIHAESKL
Experimental: The α-amylase inhibition activity of morin was assessed using 3, 5-dinitrosalicylic acid (DNSA) assay. Morin, phloroglucinol, and 1-hexyl benzene were dissolved in mixture of 10% DMSO, 0.02M Na2HPO4/NaH2PO4 buffer, and 0.006M NaCl (pH 6.9) and finally dilutions (31.05, 62.5, 125, 250, 500 and 1000 µg/mL) were prepared. In total, 200 μL α-amylase (2 units/mL) was mixed with 200 μL morin and incubated at 30 °C for 10 min. After that, 200 μL starch (1%) was added to each serial dilution and incubated for 3 min. To stop the reaction 200 μL sodium potassium tartrate tetrahydrate reagent, 2M NaOH, and […] DNSA (96mM) reagent were added to the reaction mixture. The reaction mixtures were boiled for 10 min at 85–90 °C in a water bath. After cooling the mixture was diluted with 5mL distilled water and finally at 540 nm absorbance was recorded. A blank solution was prepared containing only isolated compound morin but no enzyme. […] The α-amylase enzyme inhibitory activity was calculated by the following Equation (2): (2) % α − amylase Inhibition =control absorbance−sample absorbance/control absorbance×100
All the in vitro and in vivo experiments were analyzed in three replicates and determined as mean ± SEM. Student’s t-test and one way ANOVA followed by Dunnett’s post hoc multiple comparison test was used. p ≤ 0.05 were considered as significant. Linear regression analysis was used to calculate the IC50 value for % DPPH, ABTS, α-amylase, and α-glucosidase inhibition against the different concentrations of the test samples by means of Excel program 2007.

[2] = Acute toxicity study; type: in vivo, Sprague Dawley adult albino rats; conditions: oral 50, 100, 150, 200, 250, 300, and 500 mg/kg body weight; observed 4 h, 24 h to 1 week
Experimental: Sprague Dawley adult albino rats (body weight range = 170–200 g) were used in in vivo studies. The animals were purchased from Rifah Institute of Pharmaceutical Sciences Islamabad. The entire animals were given food and fresh water ad libitum. The animals were adjusted at room temperature around 22–25 °C. The animals were housed three rats per cage and maintained with light/dark cycle of about 12 h. All the in vivo procedures were carried out according to the ARRIVE guidelines and approval was taken from the Departmental Animal Ethical Committee (DAEC/2019/1), University of Malakand.
For acute toxicity study all the animals were treated orally with different doses (50, 100, 150, 200, 250, 300, and 500 mg/kg body weight) of isolated compound morin. After that the animals were kept under observation for 4 h for signs of toxicity (respiratory aches, convulsions, motor activity, tremors, muscle spasm, sedation, diarrhea, loss of righting reflex, hypnosis, and salivation). All the animals appeared healthy for 24 h to 1 week with no noticeable changes in appearance or behavior, and no signs of mortality were noticed. […]

[3] = test system: STZ-induced diabetic rats; assay: Ex vivo DPPH scavenging of pancreas tissue homogenates (intracellular ROS level); type: in vivo, Sprague Dawley adult albino rats; parameters: dose or concentration left out as unconfirmed
Experimental: The pancreas tissue (1 g) was isolated from Sprague Dawley rats, washed with cold saline solution and blotted dried. A weighed portion of the pancreas tissue was homogenized on ice and then centrifuged for 15 min at 3500 rpm at 4 °C. The supernatant was then taken and stored at −20 °C until assessed for different enzymes.
Cellular oxidative stress due to the overproduction of reactive oxygen species (ROS) generated by streptozotocin was measured in pancreas tissues through DPPH free radical scavenging assays. Briefly, 50 µL (0.3 mM) DPPH in methanol was incubated with 100 µL supernatant of the tissue homogenates of each experimental group and […] in the dark for 30 min at room temperature. Ascorbic acid was used as the standard. The absorbance was then read against a blank at 517 nm. The percentage scavenging was calculated according to the equation No 1.

Row | SMILES | inhibition at 31.05 µg/mL [1] [%] | inhibition at 62.5 µg/mL [1] [%] | inhibition at 125 µg/mL [1] [%] | inhibition at 250 µg/mL [1] [%] | inhibition at 500 µg/mL [1] [%] | inhibition at 1000 µg/mL [1] [%] | IC50 [1] [µM] | acute toxicity (signs of toxicity, mortality) [2] | % DPPH inhibition activity in the pancreas tissues ([3]; morin 2 treated group, diabetic control 22.41 ± 4.25) [%] | % DPPH inhibition activity in the pancreas tissues ([3]; morin 5 treated group) [%] | % DPPH inhibition activity in the pancreas tissues ([3]; morin 10 treated group) [%] | % DPPH inhibition activity in the pancreas tissues ([3]; morin 15 treated group) [%] | % DPPH inhibition activity in the pancreas tissues ([3]; morin 30 treated group) [%] | % DPPH inhibition activity in the pancreas tissues ([3]; morin 50 treated group) [%]
1 | CCCCCCc1ccccc1 [1-Hexyl benzene, 1-hexylbenzene] | 22 ± 1.1 | 28 ± 2.1 | 37 ± 1.4 | 44 ± 0.5 | 49 ± 2.1 | 55 ± 1.5 | 709 |  |  |  |  |  |  | 
2 | Oc1cc(O)cc(O)c1 [Phloroglucinol, Benzene-1,3,5-triol] | 29 ± 1 | 32 ± 1.4 | 39 ± 1.5 | 42 ± 0.4 | 55 ± 1.1 | 63 ± 0.5 | 753 |  |  |  |  |  |  | 
3 | O=c1c(O)c(-c2ccc(O)cc2O)oc2cc(O)cc(O)c12 [Morin, 2-(2,4-Dihydroxyphenyl)-3,5,7-trihydroxychromen-4-one] | 37 ± 1.1 | 44 ± 2.1 | 54 ± 1.4 | 60 ± 0.5 | 67 ± 1.4 | 75 ± 1.5 | 182 | safe and nontoxic up to 500 mg/kg body weight | 49.88 ± 3.21 | 52.66 ± 2.81 | 60.42 ± 2.12 | 65.33 ± 22.13 | 69.33 ± 3.12 | 71.42 ± 3.23
